Earlier results on 2 substances are cited in paper PMC9915632 (International Journal of Molecular Sciences, 2023).

The conditions of data set [1]: ref [15]; cited from earlier work.
The test system of the next data set is SARS-CoV-2. The note with it: in vitro; ref [16]; cited from earlier work.
For data set [2] the following is noted: ref [22], cited from earlier work.

Non-standard residues stand in square brackets, D forms with d. Orn = NCCC[C@H](N)C(=O)O

Take “cyclo(L[dF]PV[Orn]L[dF]PV[Orn]) [Gramicidin S]”: the “antibacterial and fungicidal activity” value in data set [1] is “potent antibacterial and fungicidal activity”. Further, the anti-SARS-CoV-2 activity result with SARS-CoV-2 was “anti-SARS-CoV-2 activity in vitro”.

With “For-Val-Gly-D-Leu-Ala-D-Val-Val-D-Val-Trp-D-Leu-Trp-D-Leu-Trp-D-Leu-Trp-Gly-ol [Gramicidin D, FDA-approved antimicrobial peptide drug, PubChem CID 45267103]”, the hemolysis result in data set [2] (limits use to topical application) is listed as “hemolytic side effect”. Besides, the tolerability result in data set [2] (topical antibiotic) is listed as “well-tolerated antibiotic”.
